Where “and” joins values, the source holds several entries; their conditions need not be identical. Equal entries are not always repeated. Where two headings read alike, the source gives them in different places.
How the values were obtained:
[1] = test system: EGF receptor-mediated cell proliferation; assay: Combination studies (median effect analysis: IC50, CI, DRI) in cell proliferation assay (MTT assay); conditions: for CI @ ED90: Combination Index at 90% inhibition; for DRI @ ED97: Dose Reduction Index
Description: Studies were initiated to evaluate the ability of various compounds disclosed herein to synergize with several compounds known to inhibit the function of the EGF receptor in a cell proliferation assay (MTT assay).

[2] = test system: epithelial carcinoma A431 cell line; assay: MTT Cell Proliferation Assay, A431 cells; format: cell-based; conditions: for IC50: first value of cell, read-out: MTT Assay IC50(A431/MDBK): A431; for MTT Assay IC50(A431/MDBK): ratio in parentheses: ratio MDBK IC50 / A431 IC50 (selectivity)
In short: (§1)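 Viability was measured by mitochondrial MTT reduction after cells were exposed to compound for 3 days in reduced-serum medium. Inhibition was calculated per plate against 0.5% DMSO controls.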

EGFR = target: T1, EGFR (Homo sapiens, UniProt P00533); assay: EGFR in-cell Western (ICW) screening protocol (EGFR inhibition assay); format: cell-based; parameters: ICW 1 / ICW 2 / ICW Avg: unit not given here; conditions: ICW assay; for ICW Avg: average of runs 1 and 2; for ICW 1: run 1; for ICW 2: run 2
T1 construct: host or cells: A431
T1 sequence (P00533 25-1210): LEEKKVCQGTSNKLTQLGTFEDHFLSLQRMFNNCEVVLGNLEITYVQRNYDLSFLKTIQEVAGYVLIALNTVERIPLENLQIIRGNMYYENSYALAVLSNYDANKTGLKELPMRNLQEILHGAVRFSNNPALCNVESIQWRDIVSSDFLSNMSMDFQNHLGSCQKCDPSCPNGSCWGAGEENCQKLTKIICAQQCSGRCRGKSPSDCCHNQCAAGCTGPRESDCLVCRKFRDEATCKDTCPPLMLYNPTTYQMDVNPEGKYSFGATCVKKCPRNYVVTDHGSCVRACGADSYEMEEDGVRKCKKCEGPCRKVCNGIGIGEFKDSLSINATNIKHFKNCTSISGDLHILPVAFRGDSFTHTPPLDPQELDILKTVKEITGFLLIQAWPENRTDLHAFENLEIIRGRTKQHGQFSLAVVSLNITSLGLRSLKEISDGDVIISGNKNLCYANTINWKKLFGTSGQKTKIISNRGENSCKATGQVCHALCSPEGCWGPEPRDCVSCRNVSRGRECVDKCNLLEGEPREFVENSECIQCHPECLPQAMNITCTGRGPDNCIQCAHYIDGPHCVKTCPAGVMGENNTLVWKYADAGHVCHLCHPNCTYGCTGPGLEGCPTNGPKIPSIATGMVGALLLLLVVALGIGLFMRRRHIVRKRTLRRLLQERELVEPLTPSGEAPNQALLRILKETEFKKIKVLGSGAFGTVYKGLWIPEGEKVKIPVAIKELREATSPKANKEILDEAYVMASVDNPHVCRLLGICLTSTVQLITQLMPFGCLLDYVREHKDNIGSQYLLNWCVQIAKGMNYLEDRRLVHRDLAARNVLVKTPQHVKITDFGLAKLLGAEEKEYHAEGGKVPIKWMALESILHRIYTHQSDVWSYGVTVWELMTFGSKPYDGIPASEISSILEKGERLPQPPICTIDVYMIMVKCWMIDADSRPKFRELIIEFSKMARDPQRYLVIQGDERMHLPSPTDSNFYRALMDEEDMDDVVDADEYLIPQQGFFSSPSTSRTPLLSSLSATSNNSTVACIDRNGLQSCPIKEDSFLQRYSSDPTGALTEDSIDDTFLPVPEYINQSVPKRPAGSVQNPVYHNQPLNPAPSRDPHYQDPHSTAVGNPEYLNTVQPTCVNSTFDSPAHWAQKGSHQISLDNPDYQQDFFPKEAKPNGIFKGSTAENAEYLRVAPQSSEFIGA
In short: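 Serum-starved A431 cells (2 h) were pretreated with compound for 4 h at 37° C, then stimulated with EGF (10 ng/ml final, or 6.6 or 12.5 ng/ml in some runs) for 10 min. After formaldehyde fixation, phospho-EGFR (Tyr1173, or Tyr1045 in some runs) and total EGFR were detected by in-cell Western immunostaining.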

MDBK line = assay: MTT Cell Proliferation Assay, MDBK cells; format: cell-based, bovine; conditions: MDBK cells, second value of cell, read-out: MTT Assay IC50(A431/MDBK): MDBK
In short: as §1

[3] = Homo sapiens, A-431, A431 cells

Row | SMILES | IC50 [2, 3] [µM] | MTT Assay IC50(A431/MDBK): ratio in parentheses [2] | ICW Avg (EGFR) | ICW 1 (EGFR) | ICW 2 (EGFR) | IC50 ([2]; A431 cells) [µM] | CI @ ED90 ([1]; combination with Iressa) | CI @ ED90 ([1]; combination with Tykerb) | DRI @ ED97 ([1]; effect of the test compound on Iressa) | DRI @ ED97 ([1]; effect of the test compound on Tykerb) | synergism with Tykerb [1] | effect of Tykerb on the test compound (DRI as a function of Fa) [1] | IC50 ([1]; read-out: IC50 Tykerb) | IC50 (MDBK line; Bos taurus, MDBK) [µM] | IC50 (MDBK line) [µM]
1 | Cc1cccc(NC(c2ccc(C(F)(F)F)cc2)c2ccc3cccnc3c2O)n1 (stereo not shown) [AD4-10628] | – | – | – | – | – | – | 0.91 | 0.55 | 105 | 126 | – | – | – | – | –
2 | C#Cc1cccc(Nc2ncnc3cc(OCCOC)c(OCCOC)cc23)c1 [Tarceva, reference compound] | – | – | – | – | – | – | – | – | – | – | did not produce synergistic effects | – | – | – | –
3 | CS(=O)(=O)CCNCc1ccc(-c2ccc3ncnc(Nc4ccc(OCc5cccc(F)c5)c(Cl)c4)c3c2)o1 [Tykerb, reference compound] | – | – | – | – | – | – | – | – | – | – | – | little effect on AD4-10628 | 0.178 µM and 0.189 µM and 0.307 µM | – | –
4 | Cc1nc(Nc2nc(CCC(C)C)cc(=O)[nH]2)nc2ccccc12 [compound 11792] | 5.36 | 2.53 | 30.56 | 28.62 | 32.50 | – | – | – | – | – | – | – | – | 13.6 | –
5 | CCOC(=O)c1c(N)nc(Nc2nc(C)c3cc(C)ccc3n2)nc1-c1ccccc1 [compound 11812] | 14.7 | – | 56.84 | 51.90 | 61.77 | – | – | – | – | – | – | – | – | 31.6 | –
6 | CCOC(=O)c1c(N)nc(Nc2nc(C)c3cc(C)c(C)cc3n2)nc1-c1ccccc1 [compound 11825] | 4.06 | – | 54.02 | 52.17 | 55.87 | – | – | – | – | – | – | – | – | 17.9 | –
7 | Cc1cc(C)nc(Nc2nc(N)c3ccccc3n2)n1 [compound 11829] | 19.6 | – | 65.68 | 62.56 | 68.79 | – | – | – | – | – | – | – | – | 16.2 | –
8 | CCc1ccc2nc(Nc3nc(C)c4c(n3)CCCC4)nc(C)c2c1 [compound 12213] | 39.1 | 0.99 | 28.01 | 28.35 | 27.66 | – | – | – | – | – | – | – | – | 38.6 | –
9 | Cc1ccc2nc(Nc3nc4c(c(-c5ccccc5)n3)CCCC4)nc(C)c2c1 [compound 12227] | 16.4 | 1.04 | 27.27 | 31.47 | 23.08 | – | – | – | – | – | – | – | – | 17.1 | –
10 | CCCc1c(-c2ccccc2)nc(Nc2nc(C)c3ccccc3n2)[nH]c1=O [compound 12609] | 11.2 | 2.10 | 41.04 | 42.02 | 40.07 | – | – | – | – | – | – | – | – | 23.5 | –
11 | CCc1c(C)nc(Nc2nc(C)c3cccc(OC)c3n2)[nH]c1=O [compound 12613] | – | 0.65 | 52.18 | 47.72 | 56.65 | 17.6 | – | – | – | – | – | – | – | – | 11.5
12 | COc1cccc2c(C)nc(Nc3nc(C)c(C)c(=O)[nH]3)nc12 [compound 12615] | 5.12 | 1.16 | 29.24 | 31.59 | 26.88 | – | – | – | – | – | – | – | – | 5.93 | –
13 | COc1cccc2c(C)nc(Nc3nc(-c4ccc(F)cc4)cc(=O)[nH]3)nc12 [compound 12620] | – | 1.03 | 33.01 | 32.26 | 33.77 | 5.17 | – | – | – | – | – | – | – | – | 5.3
14 | CCCc1c[nH]c(Nc2nc(C)c3ccccc3n2)nc1=O [compound 12622] | 20.8 | 0.55 | 26.32 | 21.30 | 31.34 | – | – | – | – | – | – | – | – | 11.5 | –
15 | Cc1cc(C)nc(Nc2nc(-c3ccccc3)c3ccc(Cl)cc3n2)n1 [compound 12636] | – | 2.18 | 49.02 | 49.55 | 48.49 | 15.9 | – | – | – | – | – | – | – | – | 34.6
16 | CCCc1cc(=O)[nH]c(Nc2nc(C)c3ccc(C)cc3n2)n1 [compound 12655] | – | 0.68 | 31.68 | 30.00 | 33.36 | 11.6 | – | – | – | – | – | – | – | – | 7.89

More lines, main results first:

Row | IC50 [2, 3] [µM] | MTT Assay IC50(A431/MDBK): ratio in parentheses [2] | ICW Avg (EGFR) | ICW 1 (EGFR) | ICW 2 (EGFR) | IC50 ([2]; A431 cells) [µM] | SMILES | CI @ ED90 ([1]; combination with Iressa) | CI @ ED90 ([1]; combination with Tykerb) | DRI @ ED97 ([1]; effect of the test compound on Iressa) | DRI @ ED97 ([1]; effect of the test compound on Tykerb) | synergism with Tykerb [1] | effect of Tykerb on the test compound (DRI as a function of Fa) [1] | IC50 ([1]; read-out: IC50 Tykerb) | IC50 (MDBK line; Bos taurus, MDBK) [µM] | IC50 (MDBK line) [µM]
17 | 43.1 | 0.89 | 35.24 | 29.34 | 41.14 | – | CCCc1c(C)[nH]c(Nc2nc(C)c3cc(C)ccc3n2)nc1=O [compound 12661] | – | – | – | – | – | – | – | 38.2 | –
18 | 36.1 | 0.54 | 31.86 | 29.45 | 34.27 | – | CCCc1c(C)nc(Nc2nc(C)c3cc(C)ccc3n2)[nH]c1=O [compound 12667] | – | – | – | – | – | – | – | 19.6 | –
19 | 10.7 | 0.79 | 40.69 | 29.69 | 51.69 | – | CCCc1cc(=O)[nH]c(Nc2nc(C)c3ccc(C)cc3n2)n1 [compound 12674] | – | – | – | – | – | – | – | 8.41 | –
20 | 12.9 | 1.45 | 25.81 | 28.01 | 23.61 | – | COc1ccc2c(C)nc(Nc3nc(C)cc(-c4ccccc4)n3)nc2c1 [compound 12676] | – | – | – | – | – | – | – | 18.8 | –
21 | 15.1 | 2.78 | 70.50 | 73.98 | 67.01 | – | CCOC(=O)c1c(N)nc(Nc2nc(C)c3cc(OC)ccc3n2)nc1-c1ccccc1 [compound 12679] | – | – | – | – | – | – | – | 42 | –
22 | – | 1.63 | 89.48 | 89.93 | 89.02 | 15.6 | CCOC(=O)c1c(N)nc(Nc2nc(C)c3cc(C)ccc3n2)nc1-c1ccccc1 [compound 12681] | – | – | – | – | – | – | – | – | 25.4
23 | – | 1.35 | 82.77 | 79.12 | 86.41 | 11.1 | CCCc1c(-c2ccccc2)nc(Nc2nc(C)c3ccccc3n2)[nH]c1=O [compound 12732] | – | – | – | – | – | – | – | – | 15
24 | – | 1.38 | 43.43 | 32.35 | 54.51 | 7.14 | CCCc1c(C)nc(Nc2nc(C)c3cc(C)cc(C)c3n2)[nH]c1=O [compound 12736] | – | – | – | – | – | – | – | – | 9.82
25 | 14.7 | 0.43 | 42.27 | 38.90 | 45.65 | – | C=CCc1c(C)nc(Nc2nc(C)c3cccc(OCC)c3n2)[nH]c1=O [compound 12737] | – | – | – | – | – | – | – | 6.33 | –
26 | 15.9 | 0.58 | 34.03 | 28.51 | 39.54 | – | C=CCc1c(C)nc(Nc2nc(C)c3cc(CC)ccc3n2)[nH]c1=O [compound 12739] | – | – | – | – | – | – | – | 9.17 | –
27 | – | 0.97 | 49.20 | 33.49 | 64.92 | 19.6 | CCCc1c(C)nc(Nc2nc(C)c3cccc(C)c3n2)[nH]c1=O [compound 12742] | – | – | – | – | – | – | – | – | 18.9
28 | 17.9 | 0.67 | 32.65 | 18.02 | 47.28 | – | C=CCc1c(C)nc(Nc2nc(C)c3cccc(OC)c3n2)[nH]c1=O [compound 12746] | – | – | – | – | – | – | – | 11.9 | –
29 | 12.8 | 0.70 | 30.77 | 24.37 | 37.17 | – | Cc1nc(Nc2nc(C(C)C)cc(=O)[nH]2)nc2c(C)cccc12 [compound 12777] | – | – | – | – | – | – | – | 8.96 | –
30 | 4.66 | 1.15 | 37.56 | 31.05 | 44.08 | – | COc1cccc2c(C)nc(Nc3nc(-c4ccc(F)cc4)cc(=O)[nH]3)nc12 [compound 12778] | – | – | – | – | – | – | – | 5.34 | –
